Read-outs that look alike come from different tables or passages of the source.

Series [1] can be described thus: Anesthesia score chart comparing anesthetic agents for the four components of anesthesia (Table 1). Also noted: key: 0 no effect; 1 minimal; 2 mostly; 3 maximal. The settings on record: for Antinociception (analgesia, less pain perception) / Inhibition of Stress (autonomic responses: blood pressure, heart rate; endocrine and metabolic responses) / Muscle Relaxation / Sleep (unconsciousness, amnesia, sedation): Anesthesia Score 0 to 3; for TOTALS of Anesthesia Score: sum of the four components.

For series [2], the system named is rabbits. Nature of the series: Replacement of enflurane anesthesia by ATP infusion, electrical tail stimulation and tail clamp.
The subject of another series is experimental animals. The series is described as follows: Lethal to effective dose margin. The format is in vivo. The settings on record: in vivo. The protocol:
In contrast to other conventional anesthetics, the adenosine compounds are useful over a wide dose range. For example, adenosine is active over a as range of between 1 to 5000 μg/kg/min. In contrast, conventional anesthetic agents, such as isoflurane, have narrow effective ranges. The fatal to effective anesthetic ratio of isoflurane is 3.02±0.13. Other reports indicate that isoflurane has about 1.88 times the safety range of halothane. […] Of course, the anesthesiologist will err on the side of administering too little and, thereby, runs the risk of underdosing the patient. This need for caution may result in an inadequately anesthetized (subanesthetized) patient during the surgical procedure.
One great advantage observed with adenosine compounds is the wide margin for error on effective therapeutic range. This advantage is exemplified by adenosine where the lethal dose is about 100 times the dose required for analgesia, and ATP where the lethal dose is greater than 150 times the amount required for analgesia.

Series [3] relates to rabbits. Nature of the series: Hypothermia induced under adenosine or ATP infusion. The format is in vivo, rabbit. The procedure:
The hypothermic and rewarming effects of an adenosine compound are tested in experimental animals prepared similarly as in the rabbit model described herein to test for anesthetic effects, except that the body temperature is allowed to fall. In animal studies (rabbit) where the room has a temperature of approximately 22° C., the body temperature will fall from a norm of about 39° C. to about 32° C. in about three hours. If the animal is cooled further with ice bags, a temperature of approximately 22° C. can be achieved in three hours without cardiovascular decompensation. Rewarming is done with the aid of a thermal blanket and heat lamp. The effective dosages of adenosine compound ranged from about 100 μg/kg/min to about 5000 μg/kg/min.
Referring to FIG. 7, the body temperature versus time plots are shown for eight different experiments. In Run 1, adenosine 500 μg/kg/min was administered intravenously to rabbits for six hours. The administration was then stopped and the body temperatures were allowed to recover.
In Run 2, ATP 500 μg/kg/min was administered intravenously for six hours. At that time, the body temperature was 31.5° C. The animal's body temperature was allowed to recover by applying external heating for four hours when (at the arrow) the external heating was removed and the temperature was allowed to fall. The body temperature again fell.
In Run 3, ATP was administered intravenously. The body temperature stabilized after ten hours at 32.5° C.
In Runs 4, 5, and 6, adenosine was administered to rabbits until the body temperature reached a constant value. In Run 4, after five hours, the body temperature stabilized at 33° C. In Run 6, after six hours, the temperature stabilized at 31.5° C.
In Run 7, five unmedicated New Zealand rabbits were anesthetized with halothane in O2 using a face mask. The ear vein was cannulated with a 22 gauge plastic catheter for drug infusion. 500 μg/kg/min to 5500 μ/kg/min adenosine was administered IV. Body temperature was monitored through a rectal thermometer. The body temperature started at approximately 38.5° C. After the application of ice bags, the temperature dropped approximately 5.5° C./hr until a minimum body temperature of approximately 22° C. was achieved.
The ice bags were removed and external heating applied. The body temperature of all rabbits returned to normal, and the rabbits were apparently normal.
In a comparison, in Run 8, six rabbits were anesthetized with isofluane and external cooling applied.

For series [4], the system named is rabbits. The series is described as follows: Analgesic activity of adenosine compared with morphine sulfate, tail/ear clamp and electrical stimulation.
Series [5] relates to New Zealand white rabbits. Nature of the series: Electrical tail stimulation screening: head lift (hypnotic) and escape movement (analgesic) thresholds. The format is in vivo, rabbit. The settings on record: for EM (purposeful escape movement, analgesic) threshold responses / HL (head lift, hypnotic) threshold responses: increasing doses, 60% N2O baseline sedation, FIG. 1.
Series [6] has as its system New Zealand white rabbits.
Series [7] concerns rabbits. The settings on record: rabbit, in vivo.
[8] abbreviates: N2O 60%, ENF 2.0-[…], ATP 362 ± 164 μg/kg/min, Mean ± SD, n = 6.
[9] abbreviates: Run 7, 500 to 5500 μg/kg/min IV, ice bags.
Where [10] appears, read: under 60% N2O, n = 6, Mean ± SD.

For the compound `FC(F)OC(F)(F)C(F)Cl` (centres unmarked) [ENF, enflurane, reference compound], in series [1], the “Antinociception (analgesia, less pain perception)” value (shortened to “Antinociception”) came out at 1; the “Inhibition of Stress (autonomic responses: blood pressure, heart rate; endocrine and metabolic responses)” value (“Inhibition of Stress” for short) was found to be 1; the “Muscle Relaxation” value worked out at 1; the “Sleep (unconsciousness, amnesia, sedation)” value (shortened to “Sleep”) is recorded as 3. In addition, the “TOTALS of Anesthesia Score” value in series [1] is given as 6. Also, in the series with rabbits [2] (setting [8]), the DBP was 49 ± 18 mmHg, the HR worked out at 255 ± 33 bpm, the PaCO2 was determined as 25 ± 1 mmHg and the PaO2 is 148 ± 16 mmHg. Moreover, in the series with rabbits [2] (setting [8]), the “RR (Respiratory Rate)” value was 72 ± 19 bpm and the SBP is 69 ± 22 mmHg. In the series with rabbits [2] (under 60% N2O), the “ENF level that completely inhibits responses to tail clamp” value is given as 2-2.5%.
Turning to `[N-]=[N+]=O` [Nitrous Oxide, nitrous oxide], in series [1], the “Antinociception” value was 1; the “Inhibition of Stress” value was 1; the “Muscle Relaxation” value was 0; the “Sleep” value is 1. For the same compound, in series [1], the “TOTALS of Anesthesia Score” value is recorded as 3.
Regarding `Nc1ncnc2c1ncn2[C@@H]1O[C@H](CO)[C@@H](O)[C@H]1O` [adenosine], the “lethal dose relative to the dose required for analgesia” value with experimental animals was “about 100 times”. For the same compound, the “body temperature at which it stabilized” value in the series on rabbits [3] (Run 4, after five hours) amounted to 33 °C. Also, the “body temperature at which it stabilized” value with rabbits [3] (Run 6, after six hours) amounted to 31.5 °C. Moreover, in the series on rabbits [3] (setting [9]), the “minimum body temperature achieved” value was “approximately 22 °C” and the “rate of body temperature drop” value is “approximately 5.5 ° C./hr”. Besides, in the series on rabbits [3] (external cooling, Run 7 (five rabbits), Run 8 (six rabbits)), the “survival during body temperature lowering” value is given as “All five rabbits survived”. Also, in the series with rabbits [3] (external cooling, Run 7, Run 8), the “shivering during body temperature lowering” value is reported as “no shivering or other apparent discomfort was observed”. Moreover, the “dose that completely suppressed the responses to both kinds of stimulation (ED90)” value with rabbits [4] (under 60% N2O, infusion, n = 6) is 188 ± 20 µg/kg/min. Moreover, the “drug accumulation or respiratory depression” value in series [5] (continuous infusion for prolonged times) is “did not cause drug accumulation or respiratory depression”. Moreover, in series [5], the “EM (purposeful escape movement, analgesic) threshold responses” value is on record as “elevated EM responses” and the “HL (head lift, hypnotic) threshold responses” value is recorded as “remained low”. Moreover, in series [5] (rabbit, in vivo), the “hemodynamic responses to noxious stimulation” value was “effectively blocked”. Further, the “respiratory and blood gas effects” value in series [5] (spontaneously breathing rabbits) was “maintained normal respiratory and blood gas parameters”. In series [6] (intrathecal administration), the “reduction of the response to the noxious stimulation” value is “as effective as intrathecal fentanyl”. Besides, in series [6] (rabbit, in vivo), the “Δ HR” value was −22 ± 5 bpm, the “Δ MAP” value is −4 ± 5 mmHg, the “Δ PaCO2” value is −6.8 ± 2.1 mmHg and the “Δ PaO2” value is “+10 ± 14”. Moreover, the “Δ RR” value in series [6] (rabbit, in vivo) is −4 ± 10 bpm. In the series with rabbits [7], the “BP (Systolic BP)” value is 101 ± 19 mmHg, the HR came to 230 ± 24 bpm, the PaCO2 came to 25 ± 4 mmHg and the PaO2 was determined as 126 ± 8 mmHg. Further, the “RR (Respiratory Rate)” value in the series with rabbits [7] is 85 ± 19 bpm.
Consider `Cn1c(=O)c2[nH]cnc2n(C)c1=O` [aminophylline, reference compound], for which the “reversal of adenosine induced analgesia” value in the series with rabbits [4] (aminophylline 5-10 mg/kg) was “consistently reversed”. Further, in the series on rabbits [2] (IV aminophylline), the “reversal of sustained analgesia after discontinuation of ATP” value is “partially reversed”.
Consider `FC(F)(F)C(Cl)Br` (centres unmarked) [halothane], for which, in series [1], the “Antinociception” value came out at 1; the “Inhibition of Stress” value is on record as 1; the “Muscle Relaxation” value is 1; the “Sleep” value is reported as 3. Moreover, the “TOTALS of Anesthesia Score” value in series [1] is reported as 6. For the same compound, in series [5], the “EM (purposeful escape movement, analgesic) threshold responses” value is listed as “consistently elevated” and the “HL (head lift, hypnotic) threshold responses” value is “consistently elevated”.
Consider `CN1CC[C@]23c4c5ccc(O)c4O[C@H]2[C@@H](O)C=C[C@H]3[C@H]1C5.O=S(=O)(O)O` [morphine sulfate], for which the “suppression of responses to stimulation” value with rabbits [4] (titrated IV to 2 mg/kg, under 60% N2O) was “no animal had complete suppression of all responses”. In the series with rabbits [4] (setting [10]), the “BP (Systolic BP)” value is reported as 105 ± 14 mmHg, the HR turned out to be 242 ± 72 bpm, the PaCO2 was determined as 31 ± 3 mmHg and the PaO2 came to 123 ± 14 mmHg. Further, the “RR (Respiratory Rate)” value in the series with rabbits [4] (setting [10]) is on record as 47 ± 16 bpm.

The values above are taken from patent publication US6642209B1, “Use of adenosine compounds to alleviate or normalize pathologically hyperexcited sensory nerve function in a human patient” (priority 1990, dated 2003).
